Measured values taken from patent US8609690B2, “Aryl- and heteroarylcarbonyl derivatives of substituted nortropanes, medicaments containing such compounds and their use” (Boehringer Ingelheim International GmbH, priority 2008, dated 2013).

target: T1, 11β-HSD 1 (Homo sapiens, UniProt P28845); assay: In vitro inhibition of 11β-HSD 1, HTRF detection of cortisol generated by human liver microsomes; assay type: biochemical; conditions: 1 μM test compound, 100% indicates no inhibition, zero or below zero indicates complete inhibition (relative to carbenoxolone)
T1 construct: detecting cortisol generated from cortisterone by human liver microsomes; from tissue; host or cells: human liver microsomes
Method in brief: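 Human liver microsomes with test compound were incubated 1 h at 37 °C in Tris buffer, pH 6.0, with 200 μM NADPH and 80 nM cortisone. Cortisol formed was detected by competitive HTRF immunoassay (665/615 nm ratio) and calibrated against a cortisol standard curve. Values are activities at 1 μM compound relative to carbenoxolone, where 100% indicates no inhibition.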

T1 sequence (P28845 whole entry): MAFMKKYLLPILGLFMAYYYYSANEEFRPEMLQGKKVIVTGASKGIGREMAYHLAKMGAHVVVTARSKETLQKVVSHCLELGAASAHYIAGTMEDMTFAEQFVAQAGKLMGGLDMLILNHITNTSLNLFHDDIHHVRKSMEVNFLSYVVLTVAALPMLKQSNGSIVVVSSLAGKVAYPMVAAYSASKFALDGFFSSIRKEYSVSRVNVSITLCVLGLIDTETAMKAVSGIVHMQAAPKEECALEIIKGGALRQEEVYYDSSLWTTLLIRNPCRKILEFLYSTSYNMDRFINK

Compound	Inhibitory activity on 11β-HSD 1, % CTL [% CTL]
NS(=O)(=O)c1ccc(C(=O)N2[C@@H]3CC[C@H]2C[C@@H](c2ccc(F)cc2)C3)cc1 [Example 119, endo-4-[3-(4-Fluoro-phenyl)-8-aza-bicyclo[3.2.1]octane-8-carbonyl]-benzenesulfonamide]	95
O=C(c1ccc2nn[nH]c2c1)N1[C@@H]2CC[C@H]1C[C@@H](c1ccc(F)cc1)C2 [Example 120, endo-(3H-Benzotriazol-5-yl)-[3-(4-fluoro-phenyl)-8-aza-bicyclo[3.2.1]oct-8-yl]-methanone]	25
O=C(c1ccc(CO)cc1)N1[C@@H]2CC[C@H]1C[C@@H](c1ccc(F)cc1)C2 [Example 121, endo-[3-(4-Fluoro-phenyl)-8-aza-bicyclo[3.2.1]oct-8-yl]-(4-hydroxymethyl-phenyl)-methanone]	−28
Cc1ccc(C(=O)N2[C@@H]3CC[C@H]2C[C@@H](c2ccc(F)cc2)C3)c(C)c1 [Example 122, endo-(2,4-Dimethyl-phenyl)-[3-(4-fluoro-phenyl)-8-aza-bicyclo[3.2.1]oct-8-yl]-methanone]	63
COc1cc(OC)cc(C(=O)N2[C@@H]3CC[C@H]2C[C@@H](c2ccc(F)cc2)C3)c1 [Example 123, endo-(3,5-Dimethoxy-phenyl)-[3-(4-fluoro-phenyl)-8-aza-bicyclo[3.2.1]oct-8-yl]-methanone]	−17
CC(=O)c1cccc(C(=O)N2[C@@H]3CC[C@H]2C[C@@H](c2ccc(F)cc2)C3)c1 [Example 124, endo-1-{3-[3-(4-Fluoro-phenyl)-8-aza-bicyclo[3.2.1]octane-8-carbonyl]-phenyl}-ethanone]	59
O=C(c1cccc(Cl)c1)N1[C@@H]2CC[C@H]1C[C@@H](c1ccc(F)cc1)C2 [Example 125, endo-(3-Chloro-phenyl)-[3-(4-fluoro-phenyl)-8-aza-bicyclo[3.2.1]oct-8-yl]-methanone]	7
CC(=O)c1ccccc1C(=O)N1[C@@H]2CC[C@H]1C[C@@H](c1ccc(F)cc1)C2 [Example 126, endo-1-{2-[3-(4-Fluoro-phenyl)-8-aza-bicyclo[3.2.1]octane-8-carbonyl]-phenyl}-ethanone]	63
COc1cccc(C(=O)N2[C@@H]3CC[C@H]2C[C@@H](c2ccc(F)cc2)C3)c1OC [Example 127, endo-(2,3-Dimethoxy-phenyl)-[3-(4-fluoro-phenyl)-8-aza-bicyclo[3.2.1]oct-8-yl]-methanone]	85
CC(=O)c1ccc(C(=O)N2[C@@H]3CC[C@H]2C[C@@H](c2ccc(F)cc2)C3)cc1 [Example 128, endo-1-{4-[3-(4-Fluoro-phenyl)-8-aza-bicyclo[3.2.1]octane-8-carbonyl]-phenyl}-ethanone]	79
O=C(c1cccc(O)c1)N1[C@@H]2CC[C@H]1C[C@@H](c1ccc(F)cc1)C2 [Example 129, endo-[3-(4-Fluoro-phenyl)-8-aza-bicyclo[3.2.1]oct-8-yl]-(3-hydroxy-phenyl)-methanone]	−1
O=C(c1ccc(O)cc1)N1[C@@H]2CC[C@H]1C[C@@H](c1ccc(F)cc1)C2 [Example 130, endo-[3-(4-Fluoro-phenyl)-8-aza-bicyclo[3.2.1]oct-8-yl]-(4-hydroxy-phenyl)-methanone]	−47
Cn1ccc2cc(C(=O)N3[C@@H]4CC[C@H]3C[C@@H](c3ccc(F)cc3)C4)ccc21 [Example 131, endo-[3-(4-Fluoro-phenyl)-8-aza-bicyclo[3.2.1]oct-8-yl]-(1-methyl-1H-indol-5-yl)-methanone]	−20
Cc1[nH]c2ccc(C(=O)N3[C@@H]4CC[C@H]3C[C@@H](c3ccc(F)cc3)C4)cc2c1C [Example 132, endo-(2,3-Dimethyl-1H-indol-5-yl)-[3-(4-fluoro-phenyl)-8-aza-bicyclo[3.2.1]oct-8-yl]-methanone]	−36
O=C(c1ccc2c(c1)OCCO2)N1C2CCC1CC(c1ccccc1)C2 (stereo not drawn) [Example 133, (2,3-Dihydro-benzo[1,4]dioxin-6-yl)-(3-phenyl-8-aza-bicyclo[3.2.1]oct-8-yl)-methanone]	−28
COc1ccc([C@H]2C[C@H]3CC[C@@H](C2)N3C(=O)c2ccc3c(c2)OCCO3)cc1 [Example 134, endo-(2,3-Dihydro-benzo[1,4]dioxin-6-yl)-[3-(4-methoxy-phenyl)-8-aza-bicyclo[3.2.1]oct-8-yl]-methanone]	−5
COc1ccc([C@@H]2C[C@H]3CC[C@@H](C2)N3C(=O)c2ccc3c(c2)OCCO3)cc1 [Example 135, exo-(2,3-Dihydro-benzo[1,4]dioxin-6-yl)-[3-(4-methoxy-phenyl)-8-aza-bicyclo[3.2.1]oct-8-yl]-methanone]	−35

Compound	Inhibitory activity on 11β-HSD 1, % CTL [% CTL]
CC(C)c1ccc([C@H]2C[C@H]3CC[C@@H](C2)N3C(=O)c2ccc3c(c2)OCCO3)cc1 [Example 136, endo-(2,3-Dihydro-benzo[1,4]dioxin-6-yl)-[3-(4-isopropyl-phenyl)-8-aza-bicyclo[3.2.1]oct-8-yl]-methanone]	17
Cc1ccc([C@H]2C[C@H]3CC[C@@H](C2)N3C(=O)c2ccc3c(c2)OCCO3)cc1 [Example 138, endo-(2,3-Dihydro-benzo[1,4]dioxin-6-yl)-(3-p-tolyl-8-aza-bicyclo[3.2.1]oct-8-yl)-methanone]	4
COc1cccc([C@H]2C[C@H]3CC[C@@H](C2)N3C(=O)c2ccc3c(c2)OCCO3)c1 [Example 139, endo-(2,3-Dihydro-benzo[1,4]dioxin-6-yl)-[3-(3-methoxy-phenyl)-8-aza-bicyclo[3.2.1]oct-8-yl]-methanone]	21
O=C(c1ccc2c(c1)OCCO2)N1[C@@H]2CC[C@H]1C[C@@H](c1ccc(OC(F)(F)F)cc1)C2 [Example 140, endo-(2,3-Dihydro-benzo[1,4]dioxin-6-yl)-[3-(4-trifluoromethoxy-phenyl)-8-aza-bicyclo[3.2.1]oct-8-yl]-methanone]	−5
O=C(c1ccc2c(c1)OCCO2)N1[C@@H]2CC[C@H]1C[C@@H](c1cccc(O)c1)C2 [Example 141, endo-(2,3-Dihydro-benzo[1,4]dioxin-6-yl)-[3-(3-hydroxy-phenyl)-8-aza-bicyclo[3.2.1]oct-8-yl]-methanone]	29
O=C(c1ccc2c(c1)OCCO2)N1[C@@H]2CC[C@H]1C[C@@H](c1ccc(O)cc1)C2 [Example 142, endo-(2,3-Dihydro-benzo[1,4]dioxin-6-yl)-[3-(4-hydroxy-phenyl)-8-aza-bicyclo[3.2.1]oct-8-yl]-methanone]	31
C[Si](C)(C)c1ccc([C@H]2C[C@H]3CC[C@@H](C2)N3C(=O)c2ccc3c(c2)OCCO3)cc1 [Example 143, endo-(2,3-Dihydro-benzo[1,4]dioxin-6-yl)-[3-(4-trimethyl-silyl-phenyl)-8-aza-bicyclo[3.2.1]oct-8-yl]-methanone]	58
O=C(c1ccc2c(c1)OCCO2)N1C2CCC1CC(c1ccc(Cl)cc1F)C2 (stereo not drawn) [Example 144, [3-(4-Chloro-2-fluoro-phenyl)-8-aza-bicyclo[3.2.1]oct-8-yl]-(2,3-dihydro-benzo[1,4]dioxin-6-yl)-methanone]	−59
O=C(c1ccc2c(c1)OCCO2)N1C2CCC1CC(c1ccccc1F)C2 (stereo not drawn) [Example 145, (2,3-Dihydro-benzo[1,4]dioxin-6-yl)-[3-(2-fluoro-phenyl)-8-aza-bicyclo[3.2.1]oct-8-yl]-methanone]	−37
NCc1ccc(C2CC3CCC(C2)N3C(=O)c2ccc3c(c2)OCCO3)cc1 (stereo not drawn) [Example 146, [3-(4-Aminomethyl-phenyl)-8-aza-bicyclo[3.2.1]oct-8-yl]-(2,3-dihydro-benzo[1,4]dioxin-6-yl)-methanone]	96
NCc1cccc([C@@H]2C[C@H]3CC[C@@H](C2)N3C(=O)c2ccc3c(c2)OCCO3)c1 [Example 147, exo-[3-(3-Aminomethyl-phenyl)-8-aza-bicyclo[3.2.1]oct-8-yl]-(2,3-dihydro-benzo[1,4]dioxin-6-yl)-methanone]	99
O=C(c1ccc2c(c1)OCCO2)N1C2CCC1CC(c1ccc(F)c(Cl)c1)C2 (stereo not drawn) [Example 148, [3-(3-Chloro-4-fluoro-phenyl)-8-aza-bicyclo[3.2.1]oct-8-yl]-(2,3-dihydro-benzo[1,4]dioxin-6-yl)-methanone]	−48
NC(=O)c1cccc(C2CC3CCC(C2)N3C(=O)c2ccc3c(c2)OCCO3)c1 (stereo not drawn) [Example 149, 3-[8-(2,3-Dihydro-benzo[1,4]dioxine-6-carbonyl)-8-aza-bicyclo[3.2.1]oct-3-yl]-benzamide]	30
O=C(c1ccc2c(c1)OCCO2)N1C2CCC1CC(c1cccc(-c3ccccc3)c1)C2 (stereo not drawn) [Example 150, (3-Biphenyl-3-yl-8-aza-bicyclo[3.2.1]oct-8-yl)-(2,3-dihydro-benzo[1,4]dioxin-6-yl)-methanone]	62
O=C(c1ccc2c(c1)OCCO2)N1C2CCC1CC(c1ccc(Cl)cc1)C2 (stereo not drawn) [Example 151, [3-(4-Chloro-phenyl)-8-aza-bicyclo[3.2.1]oct-8-yl]-(2,3-dihydro-benzo[1,4]dioxin-6-yl)-methanone]	−44
O=C(c1ccc2c(c1)OCCO2)N1[C@@H]2CC[C@H]1C[C@@H](c1ccc(Oc3ccccc3)cc1)C2 [Example 152, endo-(2,3-Dihydro-benzo[1 ,4]dioxin-6-yl)-[3-(4-phenoxy-phenyl)-8-aza-bicyclo[3.2.1]oct-8-yl]-methanone]	5
